The data set can be described thus: Solubility in water. It is filed as physicochemical. An excerpt:
Olanexidine has very poor solubility in water, and hitherto known salts of olanexidine are also poorly soluble in water. […] Consequently, sufficient bactericidal activity cannot be expected of an aqueous solution merely having olanexidine dissolved therein, and moreover, depending on the conditions the olanexidine may precipitate out.

On to `CCCCCCCCNC(=N)NC(=N)NCc1ccc(Cl)c(Cl)c1` [free olanexidine, 1-(3,4-dichlorobenzyl)-5-octylbiguanide], for which the “solubility in water relative to olanexidine hydrochloride” value (compared with less than 0.05% (W/V) of the hydrochloride) is “a further order of magnitude less than this”.

`CCCCCCCCN=C(N)NC(N)=NCc1ccc(Cl)c(Cl)c1.Cl` [olanexidine hydrochloride]: the solubility in water entry (at 0° C.) was “less than 0.05 % (W/V)”.

The record behind these values is patent publication US8334248B2, “Aqueous solution of olanexidine, method of preparing the aqueous solution, and disinfectant” (Otsuka Pharmaceutical Co., Ltd., priority 2003, dated 2012).
